By efflux ratio is commonly meant the permeability from basolateral to apical divided by that in the opposite direction, in the common usage.

In series [1] the test system is primary corneal epithelial cells. The experiment in a line: Cell proliferation of primary corneal epithelial cells (CellTiter-Glo, Example 3). It counts as cell-based, human. The method, then:
• Test System: HCE cells from ATCC. • Assay Format: 96-well plate format • Method of Detection: CellTiter-Glo Luminescent Cell Viability Assay (Pro mega, Cat #G7573) • Assay Controls: Reference compound (hEGF) and untreated cells • Test Samples: 57 • Media: Corneal Epithelial Cell Basal Medium+Cell growth kit components EXPERIMENTAL DESIGN
Specifically, 5000 primary corneal epithelial cells/well were seeded in a white opaque 96-well plate and incubated for 24 hrs in a 37° C. incubator supplemented with 5% CO2. After 24 hours, test compounds were treated at 8 different concentrations. Cells treated with compounds were incubated for 48 & 72 hrs at 37° C. in a 5% CO2 incubator. Post appropriate incubation time points, CellTiter-Glo luminescent reagent (Promega, Cat #G7573) was added to the plates and incubated at room temperature for 30 min. Luminescence signal was captured using EnVision^2104® Multilabel reader. Assay controls were reference compound (hEGF) and untreated cells.

Series [2] in a line: Apparent permeability, 21 day cultured Caco-2 cell monolayer, bi-directional (Example 7). It counts as in vitro ADME. As to conditions: human; for recovery at 120 min, 2 μM: Caco-2, 2 μM. The method, then: (§1) 10 mM stock solution of test compound was prepared in DMSO. 10 mM stock was diluted with 100% DMSO to prepare 0.2 mM, 0.2 mM stock was diluted with HBSS buffer to a final concentration of 2 μM.
(§2) Add 250 μL of DMEM to the basal compartment of 96 well multi-screen Caco-2 plates and seed 12000 cells/well (0.16×10^6 cells/ml) in all the apical wells required and 2 wells with only media as blank without cells. Place the Caco-2 plate in CO2 incubator at 37° C. for proliferation of cells.
(§3) The utilized media was replenished every alternate day by fresh medium. On 21st day, utilized medium was removed and washed twice with HBSS Buffer and incubated with HBSS buffer 30 min in incubator and initiated the assay.
(§4) 75 μL of test compound was added to apical wells and 250 μL of HBSS buffer with 1% DMSO was added to basal wells. Samples were collected at 120 min and processed as stated below.
(§5) 250 μL of test compound was added to basal wells and 75 μL of HBSS buffer with 1% DMSO was added to apical wells. Samples were collected at 120 min and processed as stated below.
(§6) Single point calibration curve in HBSS buffer was used. 100 μL of supernatant was diluted with 200 μL of water and submitted for LC-MS/MS analysis.
(§7) Efflux ratio=Papp of basal to apical samples/Papp of apical to basal samples
(§8) Recovery: {(dQ of Apical+dQ of Basal)/Standard dQ}*100

The subject of another series is Caco-2 cells monolayer. The description is as above. It counts as in vitro ADME. The method, then:
as §1, §2, §3, §4, §5, §6, §7, §8

Read-outs that look alike come from different tables or passages of the source.

Regarding “Human epidermal growth factor (NSDSECPLSHDGYCLHDGVCMYIEALDKYACNCVVGYIGERCQYRDLKWWELR; UniProt P01133 971-1023, looked up) [hEGF]”, the “cell proliferation (in words)” value in series [1] (48 hrs or 72 hrs, 30 to 0.01 μM) was “Concentration dependent proliferation of primary corneal epithelial cells”. Moreover, the maximum proliferation in series [1] (highest tested concentration of 30 μM, 48 hrs) is listed as ~40%.
For the molecule `CC(C)NCC(O)COc1cccc2ccccc12` (centres unmarked) [Propranolol, reference compound], the recovery at 120 min, 2 μM in series [2] (120 minutes, read-out: A to B % Recovery) was found to be 80.1%; in series [2] (120 minutes, read-out: B to A % Recovery), 90.3%. The Papp A→B at 120 min, 2 μM in series [2] (Caco-2, 2 μM, 120 minutes, average values, read-out: Papp Apical to Basal) turned out to be 23.8 ×10⁻⁶ cm/s. Also, in series [2] (Caco-2, 2 μM, 120 minutes, average values, read-out: Papp Basal to Apical), the Papp B→A at 120 min, 2 μM is 37.1 ×10⁻⁶ cm/s. In series [2] (Caco-2, Papp B-A / Papp A-B), the efflux ratio at 120 min, 2 μM stood at 1.56. The “Classification (Caco-2 Permeability)” value in the series with Caco-2 cells monolayer is “HIGH”.

The record behind these values is patent US20230146455A1, “TREATMENT OF INFLAMMATORY DISEASES WITH PEPTIDES AND PHARMACEUTICAL COMPOSITIONS” (Yuyu Pharma, Inc., priority 2020, published 2023).
